How the values were obtained:
Assay type in all cases: cell-based, rat
PKA = PKA protein expression by immunoblotting in TNF-α-exposed TSMCs; details: TSMCs with TNF-α 100 ng/ml; for effect on TNF-α-induced increases of PKA protein: 10 μM, FIG. 8; for effect on TNF-α-increased expression of PKA protein: 0.1-100 μM, FIG. 7(A) as cited in text
Method: (§1) The tracheal smooth muscle cell (TSM) culture is prepared from male Wistar rats purchased from the National Laboratory Animal Breeding and Research Center (Taipei, Taiwan).
(§2) The Wistar rats were injected intraperitoneally with a lethal dose of pentobarbital. The tracheas were excised and cut longitudinally through the cartilage. Using a dissecting microscope, TSM strips were dissected from the surrounding parenchyma. The epithelium was removed from the luminal surface, and bands of TSM were gently separated from the underlying connective tissue. The TSM strips were then chopped into small sections (1 mm^3) and incubated in Hank's balanced salt solution (NaCl, 138 mM; NaHCO3, 4 mM; KCl, 5 mM; KH2PO4, 0.3 mM; Na2HPO4, 0.3 mM; glucose, 1.0 mM) with 0.05% elastase type IV and 0.2% collagenase type IV (Invitrogen, Carlsbad, Calif.) for 30 min at 37° C. with gentle shaking. The solution of dissociated smooth muscle cells was centrifuged (6 min at 500 g) and the pellet was resuspended in 1:1 Dulbecco's modified Eagle's medium-Ham's F-12 medium supplemented with 10% fetal bovine serum (FBS), 0.244% NaHCO3, and 1% penicillin/streptomycin. Cells were cultured in a condition with or without KMUP-1, KMUP-3 and other negative or positive control agents, in 25 cm^2 flasks at 37° C. in humidified air containing 5% CO2. The medium was changed every 2-3 days.
(§3) To investigate the effects of TNF-α on PKG and PKA proteins, TSMCs were incubated with TNF-α (100 ng/ml) for 1, 3, 6, 9, 12, 18 and 24 hr, and the levels of PKG and PKA proteins were measured by immunoblotting. […] To investigate the effects of KMUP-1, KMUP-3, and the other PDE5 inhibitors zaprinast and exogenous 8-Br-cGMP on the TNF-α mediated pathway, TSMCs were incubated with TNF-α (100 ng/ml) and either one of the mentioned chemicals.

iNOS = iNOS protein expression by immunoblotting in TNF-α-exposed TSMCs; details: TSMCs with TNF-α 100 ng/ml
Method: as §1, §2
(§4) To investigate the effects of TNF-α on iNOS and sGC proteins, TSMCs were incubated with TNF-α (100 ng/ml) for 1, 3, 6, 9, 12, 18 and 24 hr, and the levels of iNOS and sGC subunit proteins were measured by immunoblotting. […] In contrast to the increase expression of iNOS protein in FIG. 2, TNF-α in FIG. 3 decreased the expression of sGCα1 and sGCβ1 proteins in a time-dependent manner, with the maximal inhibition achieved at 9 hr. To investigate the effects of KMUP-1, KMUP-3, and the other PDE5 inhibitors zaprinast and exogenous 8-Br-cGMP on the TNF-α mediated pathway, TSMCs were incubated with TNF-α (100 ng/ml) and either one of the mentioned chemicals.

sGCα1 and sGCβ1 proteins = assay: sGC subunit protein expression by immunoblotting in TNF-α-exposed TSMCs; details: 10 μM; TSMCs with TNF-α 100 ng/ml; FIG. 5
Method: as §1, §2, §4

PKG = PKG protein expression by immunoblotting in TNF-α-exposed TSMCs; details: TSMCs with TNF-α 100 ng/ml; for effect on TNF-α-induced decreases of PKG protein: 10 μM, FIG. 8; for effect on TNF-α-induced decreases of PKG protein expression: concentration series, FIG. 7(B) as cited in text
Method: as §1, §2, §3

nitrite/nitrate (NO) = assay: NO level measured by nitrite/nitrate in TSMC culture medium (colorimetric assay); details: 10 μM, 20 min pretreatment, then TNF-α 100 ng/ml for 9 hrs; FIG. 11
Method: as §1, §2
Exposure of TSMCs to TNF-α (100 ng/ml) for 9 hrs led to accumulation of nitrite and nitrate in the culture medium, indicating the release of NO. Please refer to the FIG. 11, TSMCs were pretreated with KMUP-1, KMUP-3, 8-Br-cGMP and zaprinast for 20 minutes, and were further incubated in the presence of TNF-α (100 ng/ml) for 9 hrs. The concentrations of nitrite and nitrate (stable breakdown product of NO) of each sample were analyzed using nitrite/nitrate colorimetric assay kits (Cayman Chemical Co.) and run in duplicate.

COX-2 = COX-2 protein expression by immunoblotting in TNF-α-exposed TSMCs; details: TSMCs with TNF-α 100 ng/ml, FIG. 9(B)
Method: The Wistar rats were injected intraperitoneally with a lethal dose of pentobarbital. The tracheas were excised and cut longitudinally through the cartilage. Using a dissecting microscope, TSM strips were dissected from the surrounding parenchyma. The epithelium was removed from the luminal surface, and bands of TSM were gently separated from the underlying connective tissue. The TSM strips were then chopped into small sections (1 mm^3) and incubated in Hank's balanced salt solution (NaCl, 138 mM; NaHCO3, 4 mM; KCl, 5 mM; KH2PO4, 0.3 mM; Na2HPO4, 0.3 mM; glucose, 1.0 mM) with 0.05% elastase type IV and 0.2% collagenase type IV (Invitrogen, Carlsbad, Calif.) for 30 min at 37° C. with gentle shaking. The solution of dissociated smooth muscle cells was centrifuged (6 min at 500 g) and the pellet was resuspended in 1:1 Dulbecco's modified Eagle's medium-Ham's F-12 medium supplemented with 10% fetal bovine serum (FBS), 0.244% NaHCO3, and 1% penicillin/streptomycin. […] The medium was changed every 2-3 days.
To investigate the effects of TNF-α on COX-2 protein, TSMCs were respectively incubated with or without TNF-α (100 ng/ml) for 1, 3, 6, 9, 12, 18 and 24 hr, and the levels of COX-2 proteins were measured by immunoblotting.

cGMP = assay: Intracellular cGMP level in TSMCs (radioimmunoassay); details: 10 μM, 20 min pretreatment, then TNF-α 100 ng/ml for 9 hrs; FIG. 10(A)
Method: as §1
as §2, with “Cells were cultured in a condition with or without KMUP-1, KMUP-3 and other negative or positive control agents, in 25 cm^2 flasks at 37° C. in humidified air containing 5% CO2. The medium was changed every 2-3 days.” left out
Intracellular cGMP production was decreased and reaching minimal production at 9 hr in TSMCs in the presence of TNF-α (100 ng/ml). Intracellular concentrations of cAMP and cGMP in TSMC were measured to investigate the effects of KMUP-1, KMUP-3, and the other PDE5 inhibitor zaprinast or the isoproterenol thereto. […] The concentrations of cGMP of each sample were measured using cGMP-[125I] radioimmunoassay kits (GE Healthcare Bio-Sciences Corp., Piscataway, N.J.). […] As to the level of the cAMP, TSMCs were incubated with isoproterenol, KMUP-1, and KMUP-3 for 20 min, and further incubated in the absence or presence of TNF-α (100 ng/ml) for 9 hrs, where the concentrations of cAMP of each sample were measured using cAMP-[125I] radioimmunoassay kits (GE Healthcare Bio-Sciences Corp., Piscataway, N.J.).

cAMP = assay: Intracellular cAMP level in TSMCs (radioimmunoassay); details: FIG. 10(B)
Method: as §1, §2
Intracellular cGMP production was decreased and reaching minimal production at 9 hr in TSMCs in the presence of TNF-α (100 ng/ml). Intracellular concentrations of cAMP and cGMP in TSMC were measured to investigate the effects of KMUP-1, KMUP-3, and the other PDE5 inhibitor zaprinast or the isoproterenol thereto. As to the level of cGMP, TSMCs were pretreated with KMUP-1, KMUP-3, and the other PDE5 inhibitor zaprinast for 20 minutes and were further incubated in the presence of TNF-α (100 ng/ml) for 9 hrs. The concentrations of cGMP of each sample were measured using cGMP-[125I] radioimmunoassay kits (GE Healthcare Bio-Sciences Corp., Piscataway, N.J.). […] As to the level of the cAMP, TSMCs were incubated with isoproterenol, KMUP-1, and KMUP-3 for 20 min, and further incubated in the absence or presence of TNF-α (100 ng/ml) for 9 hrs, where the concentrations of cAMP of each sample were measured using cAMP-[125I] radioimmunoassay kits (GE Healthcare Bio-Sciences Corp., Piscataway, N.J.).

PGE2 and 6-keto-PGF1a = PGE2 and 6-keto-PGF1a release from TNF-α-exposed TSMCs (EIA); details: 10 μM, 20 min pretreatment, then TNF-α 100 ng/ml for 24 hrs; FIG. 12
Method: as §1, §2
Incubation of TSMCs with TNF-α (100 ng/ml) increased the releases of PGs, PGE2 and 6-keto-PGF1a, a PGI2 stable metabolite, and the greatest increases occurred were measured at 24 hr. Please refer to the FIG. 12, TSMCs were pretreated with KMUP-1 (10 μM), KMUP-3 (10 μM), dexamethasone (1 μM) and zaprinast (10 μM) for 20 minutes, and were further incubated in the presence of TNF-α (100 ng/ml) for 24 hrs, where the concentrations of PGE2 and 6-keto-PGF1a (stable metabolite of […]) in the culture medium were measured using PGE2 and 6-keto-PGF1a EIA assay kits (Cayman Chemical Co., Ann Arbor, Mich.) in duplicate.

[1] = in the presence of TNF-α 100 ng/ml for 9 hrs

SMILES | effect on TNF-α-induced increases of PKA protein (PKA) | effect on TNF-α-induced increases of iNOS expression (iNOS; 10 μM, FIG. 4(B)) | effect on TNF-α inhibition of sGCα1 and sGCβ1 protein expression (sGCα1 and sGCβ1 proteins) | effect on TNF-α-induced decreases of PKG protein (PKG) | effect on TNF-α-induced production of nitrite/nitrate (NO levels) (nitrite/nitrate (NO)) | effect on TNF-α-induced increases of iNOS expression (iNOS; 0.01-100 μM, FIG. 4(A)) | effect on TNF-α-induced decreases of PKG protein expression (PKG) | effect on TNF-α-increased expression of PKA protein (PKA) | inhibition of TNF-α-induced COX-2 expression (COX-2) | effect on TNF-α-decreased intracellular cGMP (cGMP) | production of cAMP compared to the control group (cAMP; 10 μM, in the absence of TNF-α) | production of cAMP compared to the control group (cAMP; [1]) | effect on TNF-α-induced PGE2 and 6-keto-PGF1a formation (PGE2 and 6-keto-PGF1a) | inhibition of TNF-α-induced COX-2 expression (COX-2; 10 μM pretreatment)
Nc1ncnc2c1nc(Br)n2[C@@H]1O[C@@H]2COP(=O)(O)O[C@H]2[C@H]1O [8-Br-cAMP, reference compound] | could not affect TNF-α-induced increases of PKA protein | – | – | – | – | – | – | – | – | – | – | – | – | –
Nc1nc2c(nc(Br)n2[C@@H]2O[C@@H]3COP(=O)(O)O[C@H]3[C@H]2O)c(=O)[nH]1 [8-Br-cGMP, reference compound] | – | inhibited TNF-α-induced increases of iNOS expression to a similar extent | reversed | reversed TNF-α-induced decreases of PKG protein | inhibited | – | – | – | – | – | – | – | – | –
Cn1c(=O)c2c(ncn2CCN2CCN(c3ccccc3Cl)CC2)n(C)c1=O [KMUP-1, 7-[2-[4-(2-chlorobenzene)piperazinyl]ethyl]-1,3-dimethylxanthine] | could not affect TNF-α-induced increases of PKA protein | inhibited TNF-α-induced increases of iNOS expression to a similar extent | reversed | reversed TNF-α-induced decreases of PKG protein | inhibited | inhibited TNF-α-induced increases of iNOS expression in a concentration-dependent manner | reversed | not further increased | not | reversed to the basal level | significantly increased | could not further increase | did not inhibit | –
Cn1c(=O)c2c(ncn2CCN2CCN(c3ccc([N+](=O)[O-])cc3)CC2)n(C)c1=O [KMUP-3, 7-[2-[4-(4-nitrobenzene)piperazinyl]ethyl]-1,3-dimethylxanthine] | could not affect TNF-α-induced increases of PKA protein | inhibited TNF-α-induced increases of iNOS expression to a similar extent | reversed | reversed TNF-α-induced decreases of PKG protein | inhibited | inhibited TNF-α-induced increases of iNOS expression in a concentration-dependent manner | reversed | not further increased | not | reversed to the basal level | significantly increased | could not further increase | did not inhibit | –
CS(=O)(=O)Nc1ccc([N+](=O)[O-])cc1OC1CCCCC1 [NS-398, reference compound] | – | – | – | – | – | – | – | – | – | – | – | – | significantly inhibited | significantly inhibit
CC(C)NCC(O)c1ccc(O)c(O)c1 (stereo not shown) [isoproterenol, reference compound] | – | – | – | – | – | – | – | – | – | – | significantly increased | – | – | –
CCCOc1ccccc1-c1nc2nn[nH]c2c(=O)[nH]1 [zaprinast, reference compound] | could not affect TNF-α-induced increases of PKA protein | inhibited TNF-α-induced increases of iNOS expression to a similar extent | reversed | reversed TNF-α-induced decreases of PKG protein | inhibited | – | – | – | – | reversed to the basal level | – | – | – | –

Source: patent US20090209560A1, “ANTI-INFLAMMATION ACTIVITY OF NEWLY SYNTHESIZED XANTHINE DERIVATIVES KMUP-1 AND KMUP-3” (KAOHSIUNG MEDICAL UNIVERSITY, priority 2006, published 2009)
